Assay results as given in US20140322315A1, “CYSTEAMINE AND/OR CYSTAMINE FOR TREATING ISCHEMIC INJURY” (The Regents of the University of California, priority 2011, published 2014).

Assays:
adiponectin [1] = assay: Adiponectin secretion by adipose tissue explants / isolated fat cells cultured with cysteamine; assay type: cell-based; details: 90 μM cysteamine, 45 min; p=0.002
Method: Fat biopsy adipose tissue (AT) samples were collagenase digested×1 hr at 37° C. in a rotating waterbath. Digested AT was then filtered through 425 μm nylon mesh to separate fat cells. Isolated fat cells (FC) were twice washed in physiologic salts buffer (Phillips 2008), filtered and twice washed again. FC were spun at 50×g to concentrate. 1 ml FC were resuspended in 9 ml of defined culture media (Phillips 2008) and FC were allowed to recover×10 hrs overnight at 37° C.
Adipocytes were isolated and allowed to recover×overnight then cultured with or without 90 μM cysteamine and media collected at the following time points (45, 90, 180, 24 hr). Western Blot analysis of 20 μl of media was performed with non-reducing 5× Loading buffer. […] The blot was washed and incubated with a secondary antibody (Goat anti-mouse IR 800) and densitometry measured on a LICOR densitometer. […]
To determine the time course of cysteamine effects on adiponectin, media was changed and FC were resuspended in 9 ml of defined media ±90 μM cysteamine. FC content and secretion of adiponectin into the media was assessed in duplicate culture at 0, 45, 90, 180 minutes and 24 hr. […] Signal detection and quantitative analysis was completed using the LiCOR Odyssey Machine (LiCOR, Lincoln, Nebr.). Multimeric content of cellular adiponectin was determined by dividing the AU for the multimer by the total AU per sample. […]

adiponectin multimers = target: T1, adiponectin multimers (Homo sapiens, UniProt Q15848); assay: Gastric Banding (GB) serum incubated with cysteamine, adiponectin multimers by western blot; assay type: biochemical; details: 37° C. + 45 μM cysteamine, 1 hr
T1 construct: from tissue; host or cells: human serum (pretreatment NAFLD subjects; adults without NAFLD)
T1 sequence (Q15848 19-244): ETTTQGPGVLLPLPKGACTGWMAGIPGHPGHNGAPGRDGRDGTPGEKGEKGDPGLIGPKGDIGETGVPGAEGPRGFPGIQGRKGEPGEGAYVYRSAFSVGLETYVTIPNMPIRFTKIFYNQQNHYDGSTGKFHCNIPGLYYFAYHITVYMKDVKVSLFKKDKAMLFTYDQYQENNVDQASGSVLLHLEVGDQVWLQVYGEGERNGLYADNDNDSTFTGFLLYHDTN
Method: In another experiment, 25 μl total sample volume (5 μl diluted serum+15 μl water+5 μl 5×LB) was incubated with or without cysteamine at 37° C.×1 hr. A control was prepared without cysteamine and incubated at room temperature for 1 hour on the bench. The preparations were then run on 2×15-well 1.5 mm 3-8% Tris-acetate gels. Primary antibody—mouse anti-adiponectin 1:500, overnight at 4° C. and secondary antibody—goat anti-mouse IR800 1:20,000.
To determine threshold dose of cysteamine on reduction of serum adiponectin multimers, serum was collected and incubated with various concentrations of cysteamine. Six microliters of diluted GB serum was incubated with 24 μl water and various concentrations of cysteamine. Samples, were incubate in a tissue culture incubator for 1 hr at 37° C. with a control tube having no cysteamine addition. To each tube was then added 5 μl of 5× non-reducing loading buffer. The samples were vortexed and loaded on a 3-8% tris-Acetate gel and run for 75 min at 125 V constant current. The gel was transferred and blocked. The blot was then incubated overnight with anti-adiponectin antibody 1:500 in 3% BSA/TBS. The blot was washed and incubated with a secondary anti-mouse antibody for 1 hour. Densitometry was performed on a LICOR densitometer.

adiponectin [2] = assay: Serum total and multimeric adiponectin in subjects with NAFLD treated 24 weeks with EC-cysteamine; assay type: in vivo, human
Description: Eleven children ≧10 years, with biopsy-proven NAFLD and an alanine aminotransferase (ALT) level ≧60 IU/L, were enrolled. They were either newly diagnosed or had not received specific therapy for NAFLD such as vitamin E or insulin-sensitizing drugs for at least 3 months before entering the study. All had undertaken standard of care lifestyle changes involving diet and exercise for more than 3 months. The study's primary outcome measure was normalization (≦40 IU/L) or 50% reduction in baseline serum ALT at 24 weeks of EC-cysteamine therapy; these subjects were deemed responders.
Subjects were treated for 24 wks and remained monitored for 24 weeks following its discontinuation. The mean EC-cysteamine dose ingested was 654 mg twice daily or 15.2 mg/kg/day (median dose 900 mg) for 24 wks.
During the pilot study blood was collected at pre-defined intervals. Serum was stored at −80° C. until time of assay. Adequate serum volumes were available in 10 of the 11 subjects with NAFLD and only up to 16 weeks post-treatment.
Total and multimeric adiponectin levels were measured in serum taken from: (1) subject with NAFLD collected at 0 and 24 wks of cysteamine therapy and again 16 wks after stopping therapy (i.e., 40 weeks); (2) pretreated 0-week subjects with NAFLD and adults without NAFLD at room temperature and at 37° C. and also after incubation with cysteamine 90 μM for 1 hour at 37° C.; and (3) pretreated 0-week subjects with NAFLD before and after incubation with cysteamine at varying concentrations (15, 30, 45, 60, 90, 120 μM) for 1 hour at 37° C. to establish dose-response profile.
Sodium dodecyl sulfate polyacrylamide gel electrophoresis (SDS-PAGE) was performed according to standard Laemmli's method. Sample buffer for non-reducing, non-heat denaturing conditions contained 3% SDS; 50 mmol/1 Tris-HCL, pH 6.8 and 20% glycerol. Proteins were separated using 3-8% Tris-Acetate Gels (Invitrogen, Carlsbad Calif.) with Tris-Acetate running buffer per manufacturer instructions. For immunoblotting, proteins were transferred to nitrocellulose membranes. Membranes were washed with Tween (Tris-buffered Saline, 0.1% […]) and incubated with monoclonal antibody (1:500 BD Transduction Laboratories, San Diego, Calif.). After washing with Tris-buffered saline with 0.1% Tween (4×5 min) membranes were incubated with L-COR secondary antibodies (LI-COR Biotechnology, Lincoln Nebr.) at 1:20,000. Adiponectin multimers were detected and quantified using the LICOR imager and software analysis program. Relative distribution of adiponectin multimers was determined by dividing band density by total density (cellular adiponectin) or by total adiponectin as determined by ELISA (Millipore, Billerica, Mass.). The percentage of adionectin multimer was then multiplied by the total adiponectin level to calculate absolute oligomer value.

HMW adiponectin change (adiponectin multimers; p=0.009): significantly decrease
LMW adiponectin change (adiponectin multimers; p=0.05): significantly increase
Structure (SMILES): NCCS [cysteamine, Cysteamine]
total adiponectin, treated vs untreated (adiponectin [1]): Significant difference
all sub-forms (multimer forms) of adiponectin, change from baseline (adiponectin [2]; 24 weeks of oral EC-cysteamine): increased
total adiponectin, baseline vs 40 wks (adiponectin [2]; 40 weeks (therapy stopped at 24 weeks)): No significant difference
relative proportion of HMW in total adiponectin (adiponectin [2]; after 24 weeks cysteamine therapy, baseline 12.2%, P=0.02): increased significantly
relative proportion of LMW in total adiponectin (adiponectin [2]; after 24 weeks cysteamine therapy, baseline 14.1%): remained unchanged
relative proportion of MMW in total adiponectin (adiponectin [2]; after 24 weeks cysteamine therapy, baseline 73.7%, P=0.03): decreased
total adiponectin change between 24-week and 40-week timepoints (adiponectin [2]; after discontinuing therapy at 24 weeks, P=0.01): significant decrease
mean percent increase of total adiponectin from baseline (adiponectin [2]; all subjects, 0-24 weeks oral EC-cysteamine, P=0.05): significantly increased
